The structures appear in SMILES notation. Like-named read-outs stand apart in the source and are kept apart here.

The record followed here is patent publication US7157092B1, “Acyl pseudodipeptides, preparation method and pharmaceutical compositions containing same” (Om Pharma, priority 1998, dated 2007).

Data set [1] has as its system limulus amoebocyte lysate (LAL). The data set can be described thus: Chromogenic Limulus Amoebocyte Lysate (LAL) endotoxicity test. The format is biochemical. The conditions noted are these: for LAL activity in EU/mg: mean ± standard deviation. The method, then:
Endotoxicity was determined by a chromogenic Limuls Amoebocyte Lysate test (Chromogenic LAL of Charles River Endosafe, batch # EK412E, Charleston, USA). This test is based on activation by a lipopolysaccharide (LPS) or structurally analogous products, of an enzymatic cascade present in LAL.
The enzymatic reaction is conducted at 37° C. and the time-course chromogen formation is measured at 405 nm. In the final stage of this time-course determination assay, the time required to achieve an OD of 0.2 unit is recorded and the endotoxic activity is calculated based on an LPS standard (standard curve).
Results are expressed in EU (Endotoxin Unit) in relation to a standardized preparation of E. coli lipolysaccharides. For this series of assays, 1 EU corresponds to […] of LPS equivalent.
It is mandatory to compare the quantitative assay of the pyrogen content with a given well standardized single series of experiments.

Data set [2] relates to murine macrophage cells. The data set can be described thus: Nitric oxide production in supernatants of macrophage cultures (Griess). The following applies: 22 hours incubation, Griess reagent; FIG. 2. Type of data set: cell-based, C57/BL6 mice. The method, then:
Two six-week old male C57/BL6 mice were killed by CO2 inhalation followed by cervical dislocation. The mice were washed with alcohol, and the skin of the posterior members was entirely removed. The hip, the femur and the tibia bones were removed by joint disruption. The flesh was grossly removed using a scalpel. The bones were cleaned and the bone ends were cut with scissors. The marrrow was aspirated by injecting three times 1 ml of Dulbecco's Modified Eagle Medium (DH medium) in the bone lumen. The cells were resuspended in DH medium and centrifuged at 300×g for 5 minutes. The supernatant fluid was discarded and the cells were resuspended at a density of 40 000 cells/ml in DH medium supplemented with 20% horse serum (HS) and 30% L929 culture supernatant. L929 is a murine fibroblast cell line the supernatant fluid of which is rich in growth factor for macrophage (M-CSF). […]
After 22 hours, the microtiter plates were centrifuged, 5 minutes at 400×g and 100 μl of supernatant fluid were withdrawn and transferred into a microtiter plate. […] The microtiter plates were read with a spectrophotometer at 562 nm wavelength against a reference at 690 nm. […]
The results are expressed as mean±standard deviation after deduction of the negative control value and plotted as a dose versus response curve.
On the technique in general: Griess reagent forms a coloured azo dye with nitrite.

In data set [3] the test system is H1N1 antigen. The data set can be described thus: Subcutaneous immunization with H1N1 antigen: specific serum immunoglobulins (ELISA). The following applies: for Immunoglobulins specifically raised against H1N1 of IgG1 subclass / Immunoglobulins specifically raised against H1N1 of IgG2a subclass / Immunoglobulins specifically raised against H1N1 of IgM subclass: s.c. injections days 0 and 14, H1N1 2.5 μg, adjuvant 50 μg per injection, ± SD; for adjuvant effect on titer of antibodies specifically raised against H1N1: after one or two injections, FIGS. 22-24. Type of data set: in vivo, BALB/c mice. In general terms: In an ELISA, binding on a coated surface is turned into a signal by an enzyme label.

For data set [4], the system named is LmCPb antigen. Type of data set: in vivo, CBA mice. The following applies: for extent of proliferation, times higher than cultures from mice administered antigen alone (without adjuvant): in presence of LmCPb (15 μg/ml).
Data set [5] deals with monocytes and DC-6 cells. The data set can be described thus: IL-12 p70 production by monocytes and DC-6 cells (ELISA). The conditions noted are these: 10 μg/ml, in presence of γ IFN; FIGS. 11, 12.
For data set [6], the system named is DC-6 cells. Nature of the data set: α TNF production by predendritic cells at DC-6 stage (ELISA). The conditions noted are these: 10 μg/ml; 4, 6 and 24 hr; FIG. 10.
Data set [7] concerns Pb CS 245-252 T-cell epitope. The data set can be described thus: Murine immunization with Pb CS His6-242-310 peptide: CTL response (γ IFN ELISPOT). The following applies: 0.05 mg adjuvant + 0.02 mg antigen s.c.; FIGS. 17-20.
Where [8] appears, read: 2 injections LmCPb 3–5 μg with 2×50 μg OM adjuvant or 200 μg BCG, in vitro: No stimulant.
Setting [9] is: 2 injections LmCPb with adjuvant, in vitro: Amastigotes 2 × 10^−6/ml.
[10] abbreviates: 2 injections LmCPb with adjuvant, in vitro: Amastigotes 6 × 10^−6/ml.
[11] abbreviates: 2 injections LmCPb with adjuvant, in vitro: Amastigotes 17 × 10^−6/ml.
Setting [12] is: 2 injections LmCPb with adjuvant, in vitro: Con A 5 μg/ml.
[13] abbreviates: 2 injections LmCPb with adjuvant, in vitro: LmCPb 0.6 μg/ml.
The mark [14] stands for this setting: 2 injections LmCPb with adjuvant, in vitro: LmCPb 1.7 μg/ml.
Setting [15] is: 2 injections LmCPb with adjuvant, in vitro: LmCPb 5 μg/ml.
Where [16] appears, read: 2 injections LmCPb with adjuvant, in vitro: LmCPb 15 μg/ml.

As for `CCCCCCCCCCCC(=O)O[C@H](CCCCCCCCCCC)CC(=O)NC(CCOP(=O)(O)O)C(=O)NCCCC(CO)NC(=O)C[C@H](O)CCCCCCCCCCC` (stereo partly drawn) [OM-294-MP, 3-[(R)-3-dodecanoyloxytetradecanoylamino]-4-oxo-5-aza-9-[(R)-3-hydroxytetradecanoylamino]-decane-1,10-diol 1-dihydrogenphosphate], the “LAL activity in LPS equivalents” value in data set [1] was 1.4 ng eq. LPS/mg. In addition, the “LAL activity in EU/mg” value in data set [1] was determined as 13 ± 2 EU/mg. Also, the “production of nitric oxide by murine macrophage cells” value in data set [2] was “weaker response”. The “Immunoglobulins specifically raised against H1N1 of IgG1 subclass” value came out at 69 ± 34 Arbitrary units/ml in data set [3] (Day 14) and 59 ± 31 Arbitrary units/ml in data set [3] (Day 28). Further, the “Immunoglobulins specifically raised against H1N1 of IgG2a subclass” value in data set [3] (Day 14) turned out to be 1619 ± 743 Arbitrary units/ml; in data set [3] (Day 28), 1767 ± 1034 Arbitrary units/ml. Further, the “Immunoglobulins specifically raised against H1N1 of IgM subclass” value was 19065 ± 4069 Arbitrary units/ml in data set [3] (Day 14) and 18018 ± 1016 Arbitrary units/ml in data set [3] (Day 28). Besides, in data set [3], the “adjuvant effect on titer of antibodies specifically raised against H1N1” value is “significantly increase the titer of antibodies specifically raised against H1N1”. Besides, the 3H-TdR take-up came to 17.1 ± 2.5 cpm × 10^−3/ml in data set [4] (setting [8]); 28.4 ± 8.3 cpm × 10^−3/ml in data set [4] (setting [9]); 66.1 ± 4.5 cpm × 10^−3/ml in data set [4] (setting [10]); 68.7 ± 2.3 cpm × 10^−3/ml in data set [4] (setting [11]); 151.4 ± 3.7 cpm × 10^−3/ml in data set [4] (setting [12]); 22.9 ± 2.8 cpm × 10^−3/ml in data set [4] (setting [13]). In addition, the values for the 3H-TdR take-up in data set [4] (setting [14]), in data set [4] (setting [15]) and in data set [4] (setting [16]) were 34.1 ± 4.1 cpm × 10^−3/ml, 70.3 ± 6.4 cpm × 10^−3/ml and 124.2 ± 12.0 cpm × 10^−3/ml, respectively. The “extent of proliferation, times higher than cultures from mice administered antigen alone (without adjuvant)” value in data set [4] came to 23 times. Further, the “IL-12 p70 production in monocytes and DC-6 cells” value in data set [5] is “induced in presence of γ IFN”. Also, the “α TNF production by DC-6 cells” value in data set [6] is recorded as “in a way similar to LPS”. Moreover, the “CTL activity of lymphocytes from spleen and inguinal lymph nodes (γ IFN spots)” value in data set [7] is “clearly superior to the one induced by IFA”.
For the compound `CCCCCCCCCCCC(=O)O[C@H](CCCCCCCCCCC)CC(=O)NC(CCOP(=O)(O)O)C(=O)NCCCC(COP(=O)(O)O)NC(=O)C[C@H](O)CCCCCCCCCCC` (stereo partly drawn) [OM-294-DP, 3-[(R)-3-dodecanoyloxytetradecanoylamino]-4-oxo-5-aza-9-[(R)-3-hydroxytetradecanoylamino]decan-1,10-diol 1, 10-bis(dihydrogenphosphate)], in data set [1], the “LAL activity in LPS equivalents” value worked out at 6.2 ng eq. LPS/mg. In addition, the “LAL activity in EU/mg” value in data set [1] was found to be 56 ± 48 EU/mg. Moreover, the “production of nitric oxide by murine macrophage cells” value in data set [2] is listed as “to a much greater extent than E. coli LPS”. Further, the figures for the “Immunoglobulins specifically raised against H1N1 of IgG1 subclass” value in data set [3] (Day 14) and in data set [3] (Day 28) were 59 ± 21 Arbitrary units/ml and 38 ± 25 Arbitrary units/ml, respectively. The “Immunoglobulins specifically raised against H1N1 of IgG2a subclass” value was 452 ± 584 Arbitrary units/ml in data set [3] (Day 14) and 782 ± 857 Arbitrary units/ml in data set [3] (Day 28). Moreover, the figures for the “Immunoglobulins specifically raised against H1N1 of IgM subclass” value in data set [3] (Day 14) and in data set [3] (Day 28) were 20756 ± 7160 Arbitrary units/ml and 20944 ± 9065 Arbitrary units/ml, respectively. Also, the “adjuvant effect on titer of antibodies specifically raised against H1N1” value in data set [3] is “significantly increase the titer of antibodies specifically raised against H1N1”. The 3H-TdR take-up in data set [4] (setting [8]) was 21.8 ± 2.2 cpm × 10^−3/ml; in data set [4] (setting [9]) it was 61.0 ± 1.7 cpm × 10^−3/ml; in data set [4] (setting [10]) it was 81.5 ± 5.5 cpm × 10^−3/ml; in data set [4] (setting [11]), 78.2 ± 7.8 cpm × 10^−3/ml; in data set [4] (setting [12]), 135.9 ± 3.7 cpm × 10^−3/ml; in data set [4] (setting [13]), 40.9 ± 12.7 cpm × 10^−3/ml. Also, the 3H-TdR take-up in data set [4] (setting [14]) is 57.2 ± 10.9 cpm × 10^−3/ml; in data set [4] (setting [15]), 70.2 ± 9.2 cpm × 10^−3/ml; in data set [4] (setting [16]), 100.0 ± 6.5 cpm × 10^−3/ml. Also, the “extent of proliferation, times higher than cultures from mice administered antigen alone (without adjuvant)” value in data set [4] is reported as 28 times. Besides, in data set [6], the “α TNF production by DC-6 cells” value is “only a minor stimulating effect”. Moreover, the “CTL activity of lymphocytes from spleen and inguinal lymph nodes (γ IFN spots)” value in data set [7] is listed as “clearly superior to the one induced by IFA”.
